Drawing on ChEMBL document CHEMBL1208701, “Structure-activity relationship of indoline-2-carboxylic acid N-(substituted)phenylamide derivatives” (Bioorg Med Chem Lett, 2010), this text covers GI50 and IC50 for seven compounds.

The subject of one experiment is ACHN. The experiment can be described thus: Cytotoxicity against human ACHN cells. The format is functional.
Another experiment concerns NUGC-3. Nature of the experiment: Cytotoxicity against human NUGC3 cells. Format: functional.
Experiment [1] can be described thus: Inhibition of LPS-induced NF-kappaB transcriptional activity in mouse RAW264.7 cells. Format: cell-based.
The next experiment relates to NCI-H23. The experiment can be described thus: Cytotoxicity against human NCI-H23 cells. The format is functional.
A further experiment concerns PC-3. Nature of the experiment: Cytotoxicity against human PC3 cells. The format is functional.
The next experiment deals with HCT-15. The experiment can be described thus: Cytotoxicity against human HCT15 cells. Format: functional.
The subject of another experiment is MDA-MB-231. Nature of the experiment: Cytotoxicity against human MDA-MB-231 cells. Format: functional.

Usually GI50 stands for the concentration that inhibits growth by half. A lower GI50 goes with more potent growth inhibition. As usually defined, the IC50 is the point on the concentration scale where inhibition reaches its midpoint. A high value points to weaker potency in that assay.

For `CC(=O)N1c2ccccc2CC1C(=O)Nc1ccc(C(F)(F)F)cc1` (centres undefined), the GI50 in the experiment with ACHN, with NUGC-3, with NCI-H23, in the experiment on PC-3, in the experiment with HCT-15 and in the experiment with MDA-MB-231 was > 10 µM each time. Besides, the IC50 in experiment [1] is > 100 µM.

`CC(C)(C)C(=O)N1c2ccccc2CC1C(=O)Nc1cc(Cl)cc(Cl)c1` (centres undefined): the GI50 was found to be 3.68 µM in the experiment with ACHN; 3.35 µM with NUGC-3; 3.46 µM with NCI-H23; 4.18 µM in the experiment with PC-3; 3.81 µM with HCT-15; 4.97 µM in the experiment with MDA-MB-231. For the same compound, it took 14.5 µM to reach half-maximal inhibition in experiment [1] (IC50).

As for `CC(C)(C)C(=O)N1c2ccccc2CC1C(=O)Nc1ccc(C(F)(F)F)cc1` (centres undefined), the GI50 is 5.63 µM in the experiment on ACHN; 6.58 µM with NUGC-3; 3.65 µM with NCI-H23; 3.89 µM with PC-3; 5.54 µM in the experiment with HCT-15; 7.31 µM in the experiment with MDA-MB-231. This compound gave an IC50 in experiment [1] of 12.7 µM.

Regarding `Cc1ccc(S(=O)(=O)N2c3ccccc3CC2C(=O)Nc2ccc(C(F)(F)F)cc2)cc1` (centres undefined), the GI50 in the experiment on ACHN is > 10 µM; in the experiment on NUGC-3, > 10 µM; in the experiment with NCI-H23, 8.97 µM; in the experiment on PC-3, 6.68 µM; in the experiment on HCT-15 it was > 10 µM; with MDA-MB-231 it was > 10 µM. Also, in experiment [1], the IC50 was > 100 µM.

`CCCCCCCCC(=O)N1c2ccccc2CC1C(=O)Nc1ccc(C(F)(F)F)cc1` (centres undefined): the GI50 with ACHN is 3.78 µM; with NUGC-3, 3.45 µM; with NCI-H23, 1.62 µM; in the experiment on PC-3, 1.86 µM; in the experiment with HCT-15 it was 2.07 µM; with MDA-MB-231, > 10 µM. Moreover, the IC50 in experiment [1] was > 100 µM.

Regarding `CC(=O)N1c2ccccc2CC1C(=O)Nc1cc(Cl)cc(Cl)c1` (centres undefined), the GI50 with ACHN is > 10 µM; with NUGC-3, 7.86 µM; in the experiment with NCI-H23, 7.68 µM; with PC-3, 6.37 µM; in the experiment with HCT-15, 8.68 µM; with MDA-MB-231, > 10 µM. In experiment [1], this compound yielded an IC50 of 34.1 µM.

As for `CCCCCCCCC(=O)N1c2ccccc2CC1C(=O)Nc1cc(Cl)cc(Cl)c1` (centres undefined), the GI50 with ACHN amounted to 1.89 µM; with NUGC-3, 1.52 µM; with NCI-H23 it was 1.28 µM; with PC-3, 1.61 µM; with HCT-15, 1.73 µM; in the experiment with MDA-MB-231, 3.57 µM. This compound gave an IC50 in experiment [1] of 12.6 µM.
